The assay concerns the target ROCK2 (Homo sapiens (Human), UniProt O75116). In words: ROCK assay (Caliper LABCHIP peptide phosphorylation, 5 μM ATP). It is filed as biochemical. The settings on record: 1.5 μM peptide substrate.

The structures appear in SMILES notation.

Chain of ROCK2 (O75116 whole entry, species assumed): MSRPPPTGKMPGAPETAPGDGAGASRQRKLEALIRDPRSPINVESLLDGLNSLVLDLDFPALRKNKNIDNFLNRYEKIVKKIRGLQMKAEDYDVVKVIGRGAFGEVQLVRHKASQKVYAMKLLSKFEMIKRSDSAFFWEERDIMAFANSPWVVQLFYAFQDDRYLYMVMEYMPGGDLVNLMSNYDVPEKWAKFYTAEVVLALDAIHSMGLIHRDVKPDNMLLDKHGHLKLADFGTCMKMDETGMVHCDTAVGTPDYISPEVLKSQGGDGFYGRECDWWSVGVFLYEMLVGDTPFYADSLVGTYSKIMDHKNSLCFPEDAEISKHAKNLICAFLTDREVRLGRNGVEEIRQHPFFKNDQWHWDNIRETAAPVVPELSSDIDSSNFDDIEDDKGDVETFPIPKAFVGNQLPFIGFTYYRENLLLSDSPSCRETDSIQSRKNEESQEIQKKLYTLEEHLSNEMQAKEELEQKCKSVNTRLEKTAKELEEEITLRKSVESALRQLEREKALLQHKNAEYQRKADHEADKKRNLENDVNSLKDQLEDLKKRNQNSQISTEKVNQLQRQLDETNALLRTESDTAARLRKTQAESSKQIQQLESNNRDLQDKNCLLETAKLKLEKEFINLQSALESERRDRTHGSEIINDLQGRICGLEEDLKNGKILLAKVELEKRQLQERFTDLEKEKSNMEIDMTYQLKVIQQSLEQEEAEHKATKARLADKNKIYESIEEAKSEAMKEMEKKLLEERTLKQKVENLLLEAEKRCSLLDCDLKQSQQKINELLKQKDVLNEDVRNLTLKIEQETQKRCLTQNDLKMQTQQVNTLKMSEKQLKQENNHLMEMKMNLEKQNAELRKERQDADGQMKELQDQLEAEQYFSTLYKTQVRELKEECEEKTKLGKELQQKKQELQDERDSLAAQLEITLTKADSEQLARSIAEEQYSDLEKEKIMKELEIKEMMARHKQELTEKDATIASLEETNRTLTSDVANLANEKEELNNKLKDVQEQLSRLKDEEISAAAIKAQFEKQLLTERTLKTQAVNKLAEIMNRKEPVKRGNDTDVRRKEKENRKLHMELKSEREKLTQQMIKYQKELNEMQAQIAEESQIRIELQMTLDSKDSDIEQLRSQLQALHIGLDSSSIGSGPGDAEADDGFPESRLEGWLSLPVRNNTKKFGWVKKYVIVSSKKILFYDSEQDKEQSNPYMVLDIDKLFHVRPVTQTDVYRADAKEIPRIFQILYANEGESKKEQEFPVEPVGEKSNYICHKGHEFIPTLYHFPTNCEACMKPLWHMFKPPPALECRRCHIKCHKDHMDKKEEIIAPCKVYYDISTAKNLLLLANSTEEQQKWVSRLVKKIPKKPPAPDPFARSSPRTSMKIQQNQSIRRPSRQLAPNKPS

`O=C(CCOc1ccccc1)Nc1ccc2c(c1)OCc1cnccc1-2` [Example I-2, N-(5H-chromeno[3,4-c]pyridin-8-yl)-3-phenoxypropanamide]: inhibition was half-maximal at 82.2 nM (IC50).

For the compound `N[C@@H](CCc1ccccc1)C(=O)Nc1ccc2c(c1)OCc1cnccc1-2` [Example I-3, (S)-2-amino-N-(5H-chromeno[3,4-c]pyridin-8-yl)-4-phenylbutanamide], the IC50 (as a rule, the concentration that gives 50% inhibition) was found to be 284 nM.

With `N[C@H](CCc1ccccc1)C(=O)Nc1ccc2c(c1)OCc1cnccc1-2` [Example I-4, (R)-2-amino-N-(5H-chromeno[3,4-c]pyridin-8-yl)-4-phenylbutanamide], half-maximal inhibition (IC50) was put at 128 nM.

In turn, `CC(C(=O)Nc1ccc2c(c1)OCc1cnccc1-2)c1ccccc1Cl` (stereo not shown) [Example I-5, 2-(2-chlorophenyl)-N-(5H-chromeno [3,4-c]pyridin-8-yl) propanamide] yielded an IC50 of 33.5 nM.

`O=C(Cc1ccc(F)cc1Cl)Nc1ccc2c(c1)OCc1cnccc1-2` [Example I-10, 2-(2-chloro-4-fluorophenyl)-N-(5H-chromeno[3,4-c]pyridin-8-yl)acetamide] yielded an IC50 of 6.27 nM.

In the case of `O=C(Cc1cccc(Cl)c1)Nc1ccc2c(c1)OCc1cnccc1-2` [Example I-11, 2-(3-chlorophenyl)-N-(5H-chromeno [3,4-c]pyridin-8-yl) acetamide], the IC50 turned out to be 24.8 nM.

Compound `Cc1cccc(CC(=O)Nc2ccc3c(c2)OCc2cnccc2-3)c1` [Example I-12, N-(5H-chromeno[3,4-c]pyridin-8-yl)-2-m-tolylacetamide] showed an IC50 of 74.5 nM.

`O=C(Cc1ccc(Cl)cc1)Nc1ccc2c(c1)OCc1cnccc1-2` [Example I-13, 2-(4-chlorophenyl)-N-(5H-chromeno [3,4-c]pyridin-8-yl) acetamide]: the concentration for half-maximal inhibition (IC50) was 134 nM.

Turning to `O=C(Cc1ccc(Cl)cc1Cl)Nc1ccc2c(c1)OCc1cnccc1-2` [Example I-14, N-(5H-chromeno [3,4-c]pyridin-8-yl)-2-(2,4-dichlorophenyl) acetamide], the IC50 worked out at 54.4 nM.

Compound `Cc1ccccc1CC(=O)Nc1ccc2c(c1)OCc1cnccc1-2` [Example I-15, N-(5H-chromeno[3,4-c]pyridin-8-yl)-2-o-tolylacetamide] returned an IC50 of 16.7 nM.

For `Cc1cc(C)cc(CC(=O)Nc2ccc3c(c2)OCc2cnccc2-3)c1` [Example I-16, N-(5H-chromeno[3,4-c]pyridin-8-yl)-2-(3,5-dimethylphenyl) acetamide], the IC50 amounted to 110 nM.

The compound `O=C(Cc1cc(F)cc(F)c1)Nc1ccc2c(c1)OCc1cnccc1-2` [Example I-17, N-(5H-chromeno[3,4-c]pyridin-8-yl)-2-(3,5-difluorophenyl) acetamide] yielded an IC50 of 37.8 nM.

`COc1cc(CC(=O)Nc2ccc3c(c2)OCc2cnccc2-3)cc(OC)c1` [Example I-18, N-(5H-chromeno[3,4-c]pyridin-8-yl)-2-(3,5-dimethoxyphenyl) acetamide] gave an IC50 of 393 nM.

`COc1ccc(CC(=O)Nc2ccc3c(c2)OCc2cnccc2-3)cc1OC` [Example I-19, N-(5H-chromeno[3,4-c]pyridin-8-yl)-2-(3,4-dimethoxyphenyl) acetamide] showed an IC50 of 2500 nM.

For the compound `CS(=O)(=O)c1ccc(CC(=O)Nc2ccc3c(c2)OCc2cnccc2-3)cc1` [Example I-20, N-(5H-chromeno[3,4-c]pyridin-8-yl)-2-(4-(methylsulfonyl)phenyl)acetamide], the IC50 turned out to be 1760 nM.

The compound `O=C(Cc1c(Cl)cccc1Cl)Nc1ccc2c(c1)OCc1cnccc1-2` [Example I-21, N-(5H-chromeno[3,4-c]pyridin-8-yl)-2-(2,6-dichlorophenyl) acetamide] had a 50% inhibitory concentration (IC50) of 161 nM.

On to `O=C(Cc1cccc(C(F)(F)F)c1)Nc1ccc2c(c1)OCc1cnccc1-2` [Example I-22, N-(5H-chromeno[3,4-c]pyridin-8-yl)-2-(3-(trifluoromethyl)phenyl)acetamide], for which the half-maximal inhibitory concentration (IC50) amounted to 159 nM.

`O=C(Cc1cc(F)cc(C(F)(F)F)c1)Nc1ccc2c(c1)OCc1cnccc1-2` [Example I-23, N-(5H-chromeno[3,4-c]pyridin-8-yl)-2-(3-fluoro-5-(trifluoromethyl)phenyl)acetamide] displayed a half-inhibitory concentration (IC50) of 368 nM.

Consider `Cc1cc(F)ccc1CC(=O)Nc1ccc2c(c1)OCc1cnccc1-2` [Example I-24, N-(5H-chromeno[3,4-c]pyridin-8-yl)-2-(4-fluoro-2-methylphenyl) acetamide], for which it took 11.1 nM to reach half-maximal inhibition (IC50).

Take `CSc1ccc(CC(=O)Nc2ccc3c(c2)OCc2cnccc2-3)cc1` [Example I-25, N-(5H-chromeno[3,4-c]pyridin-8-yl)-2-(4-(methylthio)phenyl) acetamide]: the half-maximal inhibitory concentration (IC50) was 295 nM.

Turning to `O=C(Cc1ccc(F)cc1)Nc1ccc2c(c1)OCc1cnccc1-2` [Example I-26, N-(5H-chromeno[3,4-c]pyridin-8-yl)-2-(4-fluorophenyl) acetamide], the IC50 came out at 38.7 nM.

The compound `N#Cc1ccc(-c2cnn(Cc3cccc(C(=O)Nc4ccc5c(c4)OCc4cnccc4-5)c3)c2)cc1` [Example I-27, N-(5H-chromeno[3,4-c]pyridin-8-yl)-3-((4-(4-cyanophenyl)-1H-pyrazol-1-yl)methyl)benzamide] had a 50% inhibitory concentration (IC50) of 60.8 nM.

For `O=C(Nc1ccc2c(c1)OCc1cnccc1-2)c1ccc(F)cc1` [Example I-28, N-(5H-chromeno[3,4-c]pyridin-8-yl)-4-fluorobenzamide], the half-maximal inhibitory concentration (IC50) amounted to 3440 nM.

Turning to `CS(=O)(=O)c1ccc(C(=O)Nc2ccc3c(c2)OCc2cnccc2-3)cc1` [Example I-29, N-(5H-chromeno[3,4-c]pyridin-8-yl)-4-(methylsulfonyl) benzamide], the 50% inhibitory concentration (IC50) was determined as 2050 nM.

In turn, `O=C(Nc1ccc2c(c1)OCc1cnccc1-2)c1cnccn1` [Example I-30, N-(5H-chromeno[3,4-c]pyridin-8-yl) pyrazine-2-carboxamide] displayed a half-inhibitory concentration (IC50) of 2940 nM.

For `COc1ccc(CC(=O)Nc2ccc3c(c2)OCc2cnccc2-3)cc1` [Example I-31, N-(5H-chromeno[3,4-c]pyridin-8-yl)-2-(4-methoxyphenyl) acetamide], half-maximal inhibition (IC50) was put at 497 nM.

`O=C(CCCc1ccccc1)Nc1ccc2c(c1)OCc1cnccc1-2` [Example I-32, N-(5H-chromeno[3,4-c]pyridin-8-yl)-4-phenylbutanamide] returned an IC50 of 682 nM.

Regarding `O=C(Cc1ccccn1)Nc1ccc2c(c1)OCc1cnccc1-2` [Example I-33, N-(5H-chromeno[3,4-c]pyridin-8-yl)-2-(pyridin-2-yl) acetamide], the IC50 was 367 nM.

Compound `O=C(Cc1ccncc1)Nc1ccc2c(c1)OCc1cnccc1-2` [Example I-34, N-(5H-chromeno[3,4-c]pyridin-8-yl)-2-(pyridin-4-yl) acetamide] came in with a concentration for half-maximal inhibition (IC50) of 207 nM.

`CC(=O)Nc1cccc(C(=O)Nc2ccc3c(c2)OCc2cnccc2-3)c1` [Example I-35, 3-acetamido-N-(5H-chromeno[3,4-c]pyridin-8-yl) benzamide] displayed an IC50 of 434 nM.

As for `CC(C)(C(=O)Nc1ccc2c(c1)OCc1cnccc1-2)c1ccccc1` [Example I-36, N-(5H-chromeno [3,4-c]pyridin-8-yl)-2-methyl-2-phenylpropanamide], the IC50 came to 204 nM.

`O=C(CCc1ccc(Cl)cc1)Nc1ccc2c(c1)OCc1cnccc1-2` [Example I-37, 3-(4-chlorophenyl)-N-(5H-chromeno [3,4-c]pyridin-8-yl) propanamide] showed an IC50 of 323 nM.

On to `COC(=O)c1cccc(C(=O)Nc2ccc3c(c2)OCc2cnccc2-3)c1` [Example I-38, methyl 3-(5H-chromeno[3,4-c]pyridin-8-ylcarbamoyl)benzoate], for which the concentration for half-maximal inhibition (IC50) was 847 nM.

In the case of `O=C(Nc1ccc2c(c1)OCc1cnccc1-2)c1csc(-c2cccnc2)n1` [Example I-39, N-(5H-chromeno[3,4-c]pyridin-8-yl)-2-(pyridin-3-yl) thiazole-4-carboxamide], the midpoint of inhibition, the IC50, lay at 644 nM.

As to `NS(=O)(=O)c1ccc(C(=O)Nc2ccc3c(c2)OCc2cnccc2-3)cc1` [Example I-40, N-(5H-chromeno[3,4-c]pyridin-8-yl)-4-sulfamoylbenzamide], inhibition was half-maximal at 500 nM (IC50).

Compound `O=C(Nc1ccc2c(c1)OCc1cnccc1-2)c1csnn1` [Example I-41, N-(5H-chromeno[3,4-c]pyridin-8-yl)-1,2,3-thiadiazole-4-carboxamide] showed an IC50 of 2760 nM.

The compound `O=C(Cc1cccnc1)Nc1ccc2c(c1)OCc1cnccc1-2` [Example I-42, N-(5H-chromeno[3,4-c]pyridin-8-yl)-2-(pyridin-3-yl) acetamide] gave an IC50 of 287 nM.

As for `CS(=O)(=O)c1cccc(C(=O)Nc2ccc3c(c2)OCc2cnccc2-3)c1` [Example I-43, N-(5H-chromeno[3,4-c]pyridin-8-yl)-3-(methylsulfonyl) benzamide], the IC50 amounted to 2190 nM.

In the case of `O=C(Nc1ccc2c(c1)OCc1cnccc1-2)c1cscn1` [Example I-44, N-(5H-chromeno[3,4-c]pyridin-8-yl) thiazole-4-carboxamide], the half-inhibitory concentration (IC50) amounted to 1450 nM.

`O=C(Nc1ccc2c(c1)OCc1cnccc1-2)c1cncnc1` [Example I-45, N-(5H-chromeno[3,4-c]pyridin-8-yl) pyrimidine-5-carboxamide] had a 50% inhibitory concentration (IC50) of 1980 nM.

`O=C(Nc1ccc2c(c1)OCc1cnccc1-2)C(O)c1ccccc1` (stereo not shown) [Example I-46, N-(5H-chromeno[3,4-c]pyridin-8-yl)-2-hydroxy-2-phenylacetamide] displayed a half-inhibitory concentration (IC50) of 51.2 nM.

Compound `O=C(CCn1ccnc1)Nc1ccc2c(c1)OCc1cnccc1-2` [Example I-48, N-(5H-chromeno[3,4-c]pyridin-8-yl)-3-(1H-imidazol-1-yl) propanamide] yielded an IC50 of 992 nM.

Regarding `O=C(Cc1cnccn1)Nc1ccc2c(c1)OCc1cnccc1-2` [Example I-49, N-(5H-chromeno[3,4-c]pyridin-8-yl)-2-(pyrazin-2-yl) acetamide], the IC50 came out at 1250 nM.

In the case of `O=C(Nc1ccc2c(c1)OCc1cnccc1-2)c1ccccc1` [Example I-50, N-(5H-chromeno[3,4-c]pyridin-8-yl)benzamide], 4810 nM corresponded to half-maximal inhibition (IC50).

`O=C(Nc1ccc2c(c1)OCc1cnccc1-2)c1ccccc1Cl` [Example I-51, 2-chloro-N-(5H-chromeno[3,4-c]pyridin-8-yl)benzamide] registered a half-inhibitory concentration (IC50) of 1150 nM.

Compound `O=C(Nc1ccc2c(c1)OCc1cnccc1-2)c1cccc(F)c1` [Example I-52, N-(5H-chromeno[3,4-c]pyridin-8-yl)-3-fluorobenzamide] registered an IC50 of 3560 nM.

The values above are taken from patent US9663529B2, “Tricyclic pyrido-carboxamide derivatives as rock inhibitors” (BRISTOL-MYERS SQUIBB COMPANY, priority 2013, dated 2017).
